Laboratory results taken from the supplement of paper PMC12076712.

Assays:
Test in all cases: pIC50, kinobeads binding competition
Conditions in all cases: cell material: Jurkat lysate
JAK1 = JAK1 (UniProt P23458)
TGFBR1 = molecular target: T1, TGFBR1 (UniProt P36897)
T1 sequence (whole entry): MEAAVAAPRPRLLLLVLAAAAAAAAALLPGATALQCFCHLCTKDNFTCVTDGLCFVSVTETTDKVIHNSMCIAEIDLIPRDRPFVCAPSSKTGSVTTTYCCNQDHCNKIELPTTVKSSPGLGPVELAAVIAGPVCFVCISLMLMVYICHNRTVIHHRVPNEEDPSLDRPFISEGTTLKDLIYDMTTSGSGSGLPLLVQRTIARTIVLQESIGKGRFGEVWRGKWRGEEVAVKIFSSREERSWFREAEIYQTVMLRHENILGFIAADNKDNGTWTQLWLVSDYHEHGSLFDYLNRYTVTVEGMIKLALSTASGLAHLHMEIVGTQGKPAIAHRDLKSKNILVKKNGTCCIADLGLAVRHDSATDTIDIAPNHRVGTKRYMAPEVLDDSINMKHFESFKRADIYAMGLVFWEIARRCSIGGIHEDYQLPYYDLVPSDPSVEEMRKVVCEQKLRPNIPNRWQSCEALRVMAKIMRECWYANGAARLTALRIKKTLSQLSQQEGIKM

ACVR1 = molecular target: T2, ACVR1 (UniProt Q04771)
T2 sequence (whole entry): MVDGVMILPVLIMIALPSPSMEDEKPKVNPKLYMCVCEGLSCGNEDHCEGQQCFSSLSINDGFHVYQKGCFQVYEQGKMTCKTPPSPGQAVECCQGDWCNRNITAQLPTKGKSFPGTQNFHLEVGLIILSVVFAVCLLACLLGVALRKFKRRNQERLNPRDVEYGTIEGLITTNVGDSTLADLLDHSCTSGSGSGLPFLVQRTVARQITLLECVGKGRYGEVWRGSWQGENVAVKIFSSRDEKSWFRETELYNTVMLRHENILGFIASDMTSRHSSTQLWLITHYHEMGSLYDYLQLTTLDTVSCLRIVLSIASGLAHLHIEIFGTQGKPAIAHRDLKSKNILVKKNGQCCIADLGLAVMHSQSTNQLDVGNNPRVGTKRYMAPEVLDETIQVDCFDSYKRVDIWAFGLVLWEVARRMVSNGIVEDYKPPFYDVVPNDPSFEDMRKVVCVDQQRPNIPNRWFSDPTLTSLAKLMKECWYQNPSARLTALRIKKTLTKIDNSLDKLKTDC

ULK1 = molecular target: T3, ULK1 (UniProt O75385)
T3 sequence (whole entry): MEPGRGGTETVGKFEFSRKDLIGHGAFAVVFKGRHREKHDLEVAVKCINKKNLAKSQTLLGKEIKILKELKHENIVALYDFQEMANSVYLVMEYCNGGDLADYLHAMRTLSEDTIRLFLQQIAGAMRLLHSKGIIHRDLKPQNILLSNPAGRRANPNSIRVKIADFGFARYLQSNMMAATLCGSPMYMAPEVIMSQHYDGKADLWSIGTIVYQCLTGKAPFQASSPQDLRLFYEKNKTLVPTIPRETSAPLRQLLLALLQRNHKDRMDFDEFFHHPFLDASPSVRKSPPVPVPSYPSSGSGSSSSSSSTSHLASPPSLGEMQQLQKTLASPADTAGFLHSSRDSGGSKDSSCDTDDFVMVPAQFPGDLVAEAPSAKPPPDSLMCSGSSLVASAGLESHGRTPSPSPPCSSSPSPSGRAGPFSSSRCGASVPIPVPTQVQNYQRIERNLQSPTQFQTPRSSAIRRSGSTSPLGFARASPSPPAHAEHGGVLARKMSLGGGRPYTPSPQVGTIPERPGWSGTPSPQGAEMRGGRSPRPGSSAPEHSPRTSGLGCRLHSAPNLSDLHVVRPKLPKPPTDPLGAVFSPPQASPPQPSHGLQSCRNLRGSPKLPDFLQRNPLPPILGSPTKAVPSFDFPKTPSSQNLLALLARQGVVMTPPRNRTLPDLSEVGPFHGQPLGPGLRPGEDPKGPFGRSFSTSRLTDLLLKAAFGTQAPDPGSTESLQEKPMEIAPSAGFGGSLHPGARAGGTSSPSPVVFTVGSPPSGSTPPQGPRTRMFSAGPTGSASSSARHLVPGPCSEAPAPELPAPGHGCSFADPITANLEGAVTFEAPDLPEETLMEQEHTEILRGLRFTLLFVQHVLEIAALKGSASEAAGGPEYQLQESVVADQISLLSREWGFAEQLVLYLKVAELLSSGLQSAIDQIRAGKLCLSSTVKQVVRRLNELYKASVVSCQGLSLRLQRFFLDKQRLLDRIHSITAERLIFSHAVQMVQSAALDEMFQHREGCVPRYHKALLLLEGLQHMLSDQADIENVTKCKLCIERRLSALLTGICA

Measured: pIC50

JAK1, sequence (P23458 whole entry): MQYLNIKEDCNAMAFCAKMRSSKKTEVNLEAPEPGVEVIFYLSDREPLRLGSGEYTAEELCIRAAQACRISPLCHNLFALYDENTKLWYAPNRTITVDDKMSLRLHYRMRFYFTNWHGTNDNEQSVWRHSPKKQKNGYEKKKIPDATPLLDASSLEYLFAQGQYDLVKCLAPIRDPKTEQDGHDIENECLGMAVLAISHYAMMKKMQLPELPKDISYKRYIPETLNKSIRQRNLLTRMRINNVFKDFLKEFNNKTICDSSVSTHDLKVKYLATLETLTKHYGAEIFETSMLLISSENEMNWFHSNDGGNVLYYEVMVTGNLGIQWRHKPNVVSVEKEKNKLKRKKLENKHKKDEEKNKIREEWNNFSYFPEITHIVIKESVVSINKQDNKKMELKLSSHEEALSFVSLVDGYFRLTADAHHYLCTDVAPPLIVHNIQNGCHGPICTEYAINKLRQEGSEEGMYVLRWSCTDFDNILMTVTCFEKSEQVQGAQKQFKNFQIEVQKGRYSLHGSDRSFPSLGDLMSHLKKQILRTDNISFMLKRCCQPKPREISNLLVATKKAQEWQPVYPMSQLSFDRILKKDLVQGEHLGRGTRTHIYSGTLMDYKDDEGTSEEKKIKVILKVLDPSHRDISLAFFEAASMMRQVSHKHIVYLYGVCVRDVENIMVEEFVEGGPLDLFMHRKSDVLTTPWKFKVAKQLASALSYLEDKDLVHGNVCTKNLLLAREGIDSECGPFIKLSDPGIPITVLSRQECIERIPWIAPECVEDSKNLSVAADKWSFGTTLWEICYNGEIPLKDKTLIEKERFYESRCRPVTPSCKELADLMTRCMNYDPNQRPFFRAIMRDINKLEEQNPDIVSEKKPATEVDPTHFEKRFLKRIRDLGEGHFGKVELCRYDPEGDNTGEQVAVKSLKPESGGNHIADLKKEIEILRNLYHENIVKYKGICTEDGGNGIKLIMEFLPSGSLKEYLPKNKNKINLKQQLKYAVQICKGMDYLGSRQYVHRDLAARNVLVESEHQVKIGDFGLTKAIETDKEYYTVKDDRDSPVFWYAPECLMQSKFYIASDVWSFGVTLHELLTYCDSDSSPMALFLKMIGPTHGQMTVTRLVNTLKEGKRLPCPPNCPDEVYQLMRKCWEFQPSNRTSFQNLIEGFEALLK

CCc1cnn2c(NCc3ccc[n+]([O-])c3)cc(N3CCCC[C@H]3CCO)nc12 [dinaciclib]
< 4.52: all assays above
